Reference: publication PMC8837603, “Lapcin, a potent dual topoisomerase I/II inhibitor discovered by soil metagenome guided total chemical synthesis” (Nature Communications, 2022)
Entries after “also recorded” stand apart in the source; their conditions may differ.

Legend:
Human Topoisomerase I [1] = target: T1, Human Topoisomerase I (Homo sapiens, UniProt P11387); test: Human Topoisomerase I DNA relaxation assay; assay type: biochemical
T1 construct: purchased Inspiralis, UK
T1 sequence (P11387 1-765): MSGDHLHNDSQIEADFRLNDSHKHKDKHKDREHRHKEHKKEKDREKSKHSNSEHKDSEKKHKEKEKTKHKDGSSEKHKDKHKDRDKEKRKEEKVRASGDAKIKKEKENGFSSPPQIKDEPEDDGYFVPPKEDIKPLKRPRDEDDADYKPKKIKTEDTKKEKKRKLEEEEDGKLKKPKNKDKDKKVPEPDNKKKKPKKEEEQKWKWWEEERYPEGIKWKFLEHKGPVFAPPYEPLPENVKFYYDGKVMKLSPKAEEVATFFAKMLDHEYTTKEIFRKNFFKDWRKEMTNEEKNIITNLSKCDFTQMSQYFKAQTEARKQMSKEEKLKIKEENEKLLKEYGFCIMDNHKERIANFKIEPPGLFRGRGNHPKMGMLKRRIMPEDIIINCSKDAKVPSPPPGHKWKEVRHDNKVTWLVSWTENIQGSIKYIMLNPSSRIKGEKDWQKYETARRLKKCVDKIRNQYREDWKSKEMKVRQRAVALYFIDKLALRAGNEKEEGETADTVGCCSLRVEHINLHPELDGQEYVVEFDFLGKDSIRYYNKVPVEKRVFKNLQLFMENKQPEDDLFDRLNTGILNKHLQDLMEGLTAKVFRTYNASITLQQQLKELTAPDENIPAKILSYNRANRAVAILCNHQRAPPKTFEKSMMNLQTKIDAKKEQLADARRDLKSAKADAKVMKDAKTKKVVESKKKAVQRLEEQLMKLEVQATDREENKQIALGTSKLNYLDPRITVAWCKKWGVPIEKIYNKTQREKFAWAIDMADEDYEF
Method: All values were normalized to the negative control wells. […] All experiments were performed in triplicate (n = 3).

[2] = system: diverse microbial pathogens; test: Antimicrobial/antifungal susceptibility, whole panel; assay type: cell-based; conditions: at the highest concentration tested
Method: Lapcin was tested for antimicrobial activity against the bacteria and fungi shown in Supplementary Table 4. […] Ciprofloxacin (Sigma, USA) and Nystatin (Sigma, USA) were used as positive control for bacteria and fungi, respectively. Lapcin was dissolved in sterile DMSO to make a 3.2 mg/mL working solution. Lapcin was diluted across 96-well plates using a 2-fold serial dilution method to give a concentration range of 64 to 0.06 µg/mL in 50 µL of LB broth. A single colony of each test organism was grown in either 5 mL LB (bacteria) or YPD (fungi) medium overnight at 37 °C or 30 °C, respectively. Saturated overnight cultures were diluted 5,000-fold, and then 50 µL of dilute cells were transferred into each well of the assay plates. Finally, each well contains a total volume of 100 µL.

human cancer cell lines = test: MTT cell viability assay, whole cell line panel; assay type: cell-based
Method: An MTT (2-(4,5-dimethylthiazol-2-yl)−2,5-diphenyltetrazolium bromide) assay was used to determine the cytotoxicity of lapcin towards diverse cancer cell lines. Lapcin was dissolved in DMSO to make a 3.2 mg/mL working solution. For each cancer line detailed in Supplementary Table 5, cells at 80-90% confluency were counted and seeded in 96-well, flat bottom microplates and incubated at 37 °C with a 5% CO2 atmosphere. Outer wells were unused to avoid edge effects. After adhering for 24 h, the medium was sterilely aspirated and replaced with 100 µL of fresh medium containing lapcin or a control compound serially diluted at concentrations ranging from 8,000 to 0.00382 ng/mL. After 48 h (37 °C, 5% CO2), the medium was carefully removed and 110 µL of freshly prepared MTT solution (10 µL of 5 mg/mL MTT in PBS (pH 7.4) premixed with 100 µL of complete medium) was added to each well. After 3 h at 37 °C with 5% CO2, 100 µL of solubilization solution (40% DMF, 16% SDS and 2% acetic acid in H2O) was added to each well and precipitated formazan crystals were allowed to dissolve for 4 h. The absorbance of each well was then measured at 570 nm using a Tecan microplate reader.

Human Topoisomerase I [3] = target: T1, Human Topoisomerase I; test: Topoisomerase I DNA cleavage assay; assay type: biochemical; conditions: supercoil pBR322, 30 min, 37 °C; nick DNA; two independent times
Method: Topoisomerase I/II cleavage assay: A commercial Human topoisomerase cleavage assay kit (Inspiralis, UK) was used in this study with a slight modification. Camptothecin (Sigma, USA) and Etoposide (Sigma, USA) were used as the positive control for topoisomerase I cleavage assay and topoisomerase II cleavage assay, respectively. The assay was performed according to the manufacture’s protocol. Briefly, 29 µL of the master mixture was prepared by adding 3 µL of 10 x assay buffer, 1 µL of 1 µg/µL supercoil pBR322, 1 µL of 30 mM ATP (only used in topoisomerase II cleavage assay), 1.5 µL serial diluted compounds (dissolved in DMSO) and H2O. Finally, 1 µL of 10 U/µL human topoisomerase I/II alpha was added to the reaction mixture. The reaction was incubated for 30 minutes at 37℃. After incubation, 3 µL of 2% (w/v) SDS and 1.5 µL of 10 mg/mL proteinase K was added. The reaction was mixed briefly and incubated for another 30 minutes at 37 ℃. The reaction was stopped by added 10 µL of H2O, 40 µL of STEB stop buffer and 40 µL of Chloroform/isoamyl alcohol (v:v, 24:1). The mixture was vortexed vigorously for 10 secs and centrifuged for 2 minutes. 20 µL of aqueous phase was loaded onto 1% (w/v) agarose gel and separated at 80 V for 2 hours in 0.5% TBE buffer. […]

[4] = system: Candida albicans ATCC76485; test: MIC assay, Candida albicans; assay type: cell-based; conditions: YPD, 16 h, n = 2
Method: (§1) Lapcin was tested for antimicrobial activity against the bacteria and fungi shown in Supplementary Table 4. […] Lapcin was dissolved in sterile DMSO to make a 3.2 mg/mL working solution. Lapcin was diluted across 96-well plates using a 2-fold serial dilution method to give a concentration range of 64 to 0.06 µg/mL in 50 µL of LB broth. A single colony of each test organism was grown in either 5 mL LB (bacteria) or YPD (fungi) medium overnight at 37 °C or 30 °C, respectively. Saturated overnight cultures were diluted 5,000-fold, and then 50 µL of dilute cells were transferred into each well of the assay plates. Finally, each well contains a total volume of 100 µL.

[5] = system: Escherichia coli ATCC25922; test: MIC assay, Escherichia coli; assay type: cell-based; conditions: LB, 16 h, 37 °C, n = 2
Method: as §1

Topo II = test: Enzyme concentration dependence, Topo II activity assay; assay type: biochemical; conditions: unlike known DNA intercalators; Supplementary Fig. 38

Compound: CCCCCCCCCCCC(O)CC(=O)N[C@@H](C)C(=O)N[C@@H](CO)C(=O)N[C@@H](C)C(=O)Nc1ccc(-c2nc(-c3nc(C(=O)N[C@@H](CC(N)=O)C(=O)Nc4ccc(C(=O)Nc5ccc(C(=O)Nc6ccc(C(=O)O)cc6)c(O)c5OC(C)C)cc4)cs3)cs2)cc1 (stereo partly drawn) [Lapcin, 4-(4-(4-((2S)-4-amino-2-(2'-(4-((2S)-2-((2S)-3-hydroxy-2-((2S)-2-(3-hydroxytetradecanamido)propanamido)propanamido)propanamido)phenyl)-[2,4'-bithiazole]-4-carboxamido)-4-oxobutanamido)benzamido)-2-hydroxy-3-isopropoxybenzamido)benzoic acid]
- fold more potent than camptothecin, topoisomerase I (Human Topoisomerase I [1]): 14 times
- IC50 (Human Topoisomerase I [1]; supercoiled pBR322, 30 min, 37 °C, gel, ethidium bromide, n = 3): 2.17 µM
- antimicrobial or antifungal activity [2]: no antimicrobial or antifungal activity
- difference in IC50 between non-cancerous HEK293 and most susceptible cell lines (human cancer cell lines; Table 1 IC50s, therapeutic window): over 3 orders of magnitude
- potency relative to etoposide in cell lines (human cancer cell lines; all cell lines except NCI-H226): more potent than the topoisomerase II inhibitor etoposide
- cytotoxic potency (IC50) in words (human cancer cell lines; breast, lung, colon, bone and cervical cancer cell lines, MTT, 48 h): nM to pM IC50s; also recorded: potent human cancer cell line toxin; also recorded: nM to pM (IC50) inhibitor
- potency relative to camptothecin in cell lines (human cancer cell lines; exception of HCT116, HCC1806 and NCI-H226): more potent than the topoisomerase I inhibitor camptothecin
- correlation of activity with p53 expression (human cancer cell lines; reported p53 expression levels of the cell lines tested): general correlation between lapcin activity and reported p53 expression levels
- accumulation of cleavage product, Topo I (Human Topoisomerase I [3]): did not observe the accumulation of a cleavage product
- MIC, Candida albicans [4]: > 32 µg/mL
- MIC, Escherichia coli [5]: > 32 µg/mL
- dependence of activity on enzyme concentration, Topo II (Topo II): strong dependence on enzyme concentration
